Measured values reported in publication PMC8617031, “Development of a BCL-xL and BCL-2 dual degrader with improved anti-leukemic activity,” (Nature Communications, 2021).
Where “and” joins values, the source holds several entries; their conditions need not be identical. Equal values may be shown once.

Key:
[1] = tested on: BCL-xL/PROTAC/VCB ternary complex (HiBit-BCL-xL, HaloTag-VHL); experiment: NanoBRET intracellular ternary complex formation in 293T cells, BCL-xL; assay type: cell-based, human; conditions: for NanoBRET ratio (610/450 x1000, background-subtracted), Bcl-xl, Ave / NanoBRET signal (610/450 ratio, background-subtracted), Ave, Bcl-xl: Ave of Read1 and Read2; for NanoBRET ratio (610/450 x1000, background-subtracted), Bcl-xl, Ave / NanoBRET ratio (610/450 x1000, background-subtracted), Bcl-xl, Read1 / NanoBRET ratio (610/450 x1000, background-subtracted), Bcl-xl, Read2: 293T cells, triplicate wells; for NanoBRET signal (610/450 ratio, background-subtracted), Ave, Bcl-xl: per replicate well; for NanoBRET signal (610/450 ratio, background-subtracted), Read1, Bcl-xl / NanoBRET signal (610/450 ratio, background-subtracted), Read2, Bcl-xl: individual replicate wells
Source text: (§1) Plasmids HaloTag-VHL (Cat. No. CS1679C155) and CMV HiBit (Cat. No. CS1956B03) were purchased from Promega. HiBit-BCL-xL and HiBit-BCL-2 were constructed previously. The two mutants (HiBit-BCL-xL-K157-only and HiBit-BCL-xL-K-ko) were constructed through Gibson assembly method. The primer pair (5′-[…]-3′ and 5′-[…]c[…]-3′) and the template Flag-BCL-xL-K157-only or Flag-BCL-xL-K-ko (pDL2129)[2] were used to clone the BCL-xL-K157-only-containing and BCL-xL-K-ko-containing fragments, respectively. The primer pair (5′-[…]g[…]-3′ and 5′-[…]-3′) and pBit3.1-N (Cat. No. N2361, Promega) were used to clone the vector-containing fragment. The PCR fragments were assembled using NEBuilder® HiFi DNA Assembly Master Mix (Cat. No. E2621, NEB, Ipswich, MA, USA). DNA sequences in all these plasmids were authenticated by automatic sequencing. […] After 24 h, 2 × 10^4 transfected cells were seeded into white 96-well tissue culture plates in Gibco™ Opti-MEM™ I Reduced Serum Medium, No Phenol Red (Cat. No. 11-058-021, Fisher) containing 4% FBS with or without HaloTag NanoBRET 618 Ligand (Cat. No. PRN1662, Promega) and incubated overnight at 37 °C, 5% CO2. The following day, serial diluted compounds were added into the medium and plates were incubated at 37 °C, 5% CO2, for 6 h. After treatment, NanoBRET Nano-Glo Substrate (cat. no. N1662, Promega) was added into the medium, and the contents were mixed by shaking the plate for 30 s before measuring donor and acceptor signals on Biotek plate reader. Dual-filtered luminescence was collected with a 450/50 nm bandpass filter (donor, NanoBiT-BCL-XL protein or NanoBiT-BCL-2 protein) and a 610-nm longpass filter (acceptor, HaloTag NanoBRET ligand) using an integration time of 0.5 s. mBRET ratios were calculated following the NanoBRET™ Nano-Glo® Detection System (Cat. No. N1662, Promega).

[2] = tested on: BCL-2/PROTAC/VCB ternary complex (HiBit-BCL-2, HaloTag-VHL); experiment: NanoBRET intracellular ternary complex formation in 293T cells, BCL-2; assay type: cell-based, human; conditions: for NanoBRET ratio (610/450 x1000, background-subtracted), Bcl-2, Ave / NanoBRET signal (610/450 ratio, background-subtracted), Ave, Bcl-2: Ave of Read1 and Read2; for NanoBRET ratio (610/450 x1000, background-subtracted), Bcl-2, Ave / NanoBRET ratio (610/450 x1000, background-subtracted), Bcl-2, Read1 / NanoBRET ratio (610/450 x1000, background-subtracted), Bcl-2, Read2: 293T cells, triplicate wells; for NanoBRET signal (610/450 ratio, background-subtracted), Ave, Bcl-2: per replicate well; for NanoBRET signal (610/450 ratio, background-subtracted), Read1, Bcl-2 / NanoBRET signal (610/450 ratio, background-subtracted), Read2, Bcl-2: individual replicate wells
Source text: as §1

Row | SMILES | NanoBRET ratio (610/450 x1000, background-subtracted), Bcl-xl, Ave ([1]; 0.333 uM) | NanoBRET ratio (610/450 x1000, background-subtracted), Bcl-xl, Read1 ([1]; 0.333 uM) | NanoBRET ratio (610/450 x1000, background-subtracted), Bcl-xl, Read2 ([1]; 0.333 uM) | NanoBRET ratio (610/450 x1000, background-subtracted), Bcl-xl, Ave ([1]; 1 uM) | NanoBRET ratio (610/450 x1000, background-subtracted), Bcl-xl, Read1 ([1]; 1 uM) | NanoBRET ratio (610/450 x1000, background-subtracted), Bcl-xl, Read2 ([1]; 1 uM) | NanoBRET ratio (610/450 x1000, background-subtracted), Bcl-xl, Ave ([1]; 3 uM) | NanoBRET ratio (610/450 x1000, background-subtracted), Bcl-xl, Read1 ([1]; 3 uM) | NanoBRET ratio (610/450 x1000, background-subtracted), Bcl-xl, Read2 ([1]; 3 uM) | NanoBRET ratio (610/450 x1000, background-subtracted), Bcl-2, Ave ([2]; 0.333 uM) | NanoBRET ratio (610/450 x1000, background-subtracted), Bcl-2, Read1 ([2]; 0.333 uM) | NanoBRET ratio (610/450 x1000, background-subtracted), Bcl-2, Read2 ([2]; 0.333 uM) | NanoBRET ratio (610/450 x1000, background-subtracted), Bcl-2, Ave ([2]; 1 uM) | NanoBRET ratio (610/450 x1000, background-subtracted), Bcl-2, Read1 ([2]; 1 uM) | NanoBRET ratio (610/450 x1000, background-subtracted), Bcl-2, Read2 ([2]; 1 uM) | NanoBRET ratio (610/450 x1000, background-subtracted), Bcl-2, Ave ([2]; 3 uM) | NanoBRET ratio (610/450 x1000, background-subtracted), Bcl-2, Read1 ([2]; 3 uM) | NanoBRET ratio (610/450 x1000, background-subtracted), Bcl-2, Read2 ([2]; 3 uM) | other results
1 | Cc1ncsc1-c1ccc(C(C)NC(=O)C2CC(O)CN2C(=O)C(NC(=O)CCCC(=O)N2CCN(CC3(C)CCC(c4ccc(Cl)cc4)=C(CN4CCN(c5ccc(C(=O)NS(=O)(=O)c6ccc(NC(CCN7CCOCC7)CSc7ccccc7)c(S(=O)(=O)C(F)(F)F)c6)cc5)CC4)C3)CC2)C(C)(C)C)cc1 (mixture of isomers) [319-C5] | 6.339 and 5.781 and 6.072 | 6.257 and 5.719 and 6.3849 | 6.422 and 5.844 and 5.759 | 5.241 and 6.025 and 7.398 | 5.522 and 5.988 and 7.452 | 4.96 and 6.062 and 7.344 | 5.367 and 5.631 and 6.141 | 5.5804 and 5.686 and 6.375 | 5.154 and 5.575 and 5.907 | 5.628 and 6.032 and 6.002 | 5.8735 and 6.598 and 5.9581 | 5.383 and 5.466 and 6.046 | 7.014 and 6.158 and 6.868 | 6.748 and 6.437 and 7.054 | 7.2789 and 5.879 and 6.683 | 6.77 and 7.133 and 6.868 | 6.63 and 7.268 and 6.8218 | 6.909 and 6.997 and 6.914 | –
2 | Cc1ncsc1-c1ccc(C(C)NC(=O)C2CC(O)CN2C(=O)C(NC(=O)CCCCC(=O)N2CCN(CC3(C)CCC(c4ccc(Cl)cc4)=C(CN4CCN(c5ccc(C(=O)NS(=O)(=O)c6ccc(NC(CCN7CCOCC7)CSc7ccccc7)c(S(=O)(=O)C(F)(F)F)c6)cc5)CC4)C3)CC2)C(C)(C)C)cc1 (mixture of isomers) [319-C6] | 6.174 and 6.1699 and 6.65 | 6.062 and 6.008 and 6.406 | 6.287 and 6.332 and 6.893 | 8.477 and 7.0143 and 7.515 | 8.852 and 7.285 and 8.097 | 8.103 and 6.744 and 6.934 | 8.009 and 9.063 and 8.852 | 8.381 and 8.755 and 9.483 | 7.637 and 9.371 and 8.221 | 6.191 and 6.524 and 6.882 | 6.596 and 6.719 and 7.227 | 5.786 and 6.329 and 6.537 | 6.728 and 7.064 and 7.162 | 6.811 and 7.607 and 7.576 | 6.646 and 6.52 and 6.748 | 8.027 and 7.6 and 7.992 | 8.178 and 7.5868 and 7.751 | 7.877 and 7.613 and 8.232 | –
3 | Cc1ncsc1-c1ccc(C(C)NC(=O)C2CC(O)CN2C(=O)C(NC(=O)CCCCCC(=O)N2CCN(CC3(C)CCC(c4ccc(Cl)cc4)=C(CN4CCN(c5ccc(C(=O)NS(=O)(=O)c6ccc(NC(CCN7CCOCC7)CSc7ccccc7)c(S(=O)(=O)C(F)(F)F)c6)cc5)CC4)C3)CC2)C(C)(C)C)cc1 (mixture of isomers) [319-C7] | 6.383 and 6.41 and 6.027 | 6.118 and 6.864 and 6.2545 | 6.648 and 5.956 and 5.8 | 8.353 and 6.411 and 6.637 | 7.957 and 6.709 and 6.774 | 8.749 and 6.113 and 6.499 | 5.568 and 7.612 and 6.364 | 5.755 and 8.211 and 6.36 | 5.382 and 7.013 and 6.368 | 6.052 and 6.92 and 7.6505 | 5.966 and 6.845 and 7.7752 | 6.137 and 6.996 and 7.5258 | 8.414 and 7.671 and 8.038 | 8.989 and 7.62 and 8.138 | 7.839 and 7.721 and 7.939 | 7.385 and 7.884 and 8.749 | 7.497 and 8.645 and 8.883 | 7.2733 and 7.122 and 8.615 | –
4 | Cc1ncsc1-c1ccc(C(C)NC(=O)C2CC(O)CN2C(=O)C(NC(=O)CCCCCCC(=O)N2CCN(CC3(C)CCC(c4ccc(Cl)cc4)=C(CN4CCN(c5ccc(C(=O)NS(=O)(=O)c6ccc(NC(CCN7CCOCC7)CSc7ccccc7)c(S(=O)(=O)C(F)(F)F)c6)cc5)CC4)C3)CC2)C(C)(C)C)cc1 (mixture of isomers) [319-C8] | – | – | – | – | – | – | – | – | – | – | – | – | – | – | – | – | – | – | NanoBRET signal (610/450 ratio, background-subtracted), Ave, Bcl-xl ([1]; 0.333 uM): 7.726 and 6.163 and 6.736; NanoBRET signal (610/450 ratio, background-subtracted), Read1, Bcl-xl ([1]; 0.333 uM): 7.612 and 5.878 and 6.37; NanoBRET signal (610/450 ratio, background-subtracted), Read2, Bcl-xl ([1]; 0.333 uM): 7.841 and 6.448 and 7.103; NanoBRET signal (610/450 ratio, background-subtracted), Ave, Bcl-xl ([1]; 1 uM): 7.132 and 7.494 and 7.451; NanoBRET signal (610/450 ratio, background-subtracted), Read1, Bcl-xl ([1]; 1 uM): 7.4 and 7.483 and 8.183; NanoBRET signal (610/450 ratio, background-subtracted), Read2, Bcl-xl ([1]; 1 uM): 6.864 and 7.506 and 6.7195; NanoBRET signal (610/450 ratio, background-subtracted), Ave, Bcl-xl ([1]; 3 uM): 8.664 and 8.41 and 8.787; NanoBRET signal (610/450 ratio, background-subtracted), Read1, Bcl-xl ([1]; 3 uM): 9.315 and 7.583 and 8.729; NanoBRET signal (610/450 ratio, background-subtracted), Read2, Bcl-xl ([1]; 3 uM): 8.012 and 9.238 and 8.844; NanoBRET signal (610/450 ratio, background-subtracted), Ave, Bcl-2 ([2]; 0.333 uM): 6.709 and 6.763 and 6.945; NanoBRET signal (610/450 ratio, background-subtracted), Read1, Bcl-2 ([2]; 0.333 uM): 6.876 and 6.829 and 6.839; NanoBRET signal (610/450 ratio, background-subtracted), Read2, Bcl-2 ([2]; 0.333 uM): 6.543 and 6.698 and 7.051; NanoBRET signal (610/450 ratio, background-subtracted), Ave, Bcl-2 ([2]; 1 uM): 8.276 and 7.6621 and 8.376; NanoBRET signal (610/450 ratio, background-subtracted), Read1, Bcl-2 ([2]; 1 uM): 8.792 and 8.054 and 8.836; NanoBRET signal (610/450 ratio, background-subtracted), Read2, Bcl-2 ([2]; 1 uM): 7.759 and 7.2706 and 7.917; NanoBRET signal (610/450 ratio, background-subtracted), Ave, Bcl-2 ([2]; 3 uM): 8.696 and 8.738 and 7.9326; NanoBRET signal (610/450 ratio, background-subtracted), Read1, Bcl-2 ([2]; 3 uM): 8.912 and 9.6864 and 8.129; NanoBRET signal (610/450 ratio, background-subtracted), Read2, Bcl-2 ([2]; 3 uM): 8.48 and 7.79 and 7.737
